Test [1] relates to MDA-MB-453. In words: Cell viability assay (MTT, solid tumour cell line) MDA-MB-453. In kind it is cell-based, human. Particulars: Homo sapiens, MDA-MB-453, 72 h; read-out: Anti-proliferative activity GI50 MDA-MB-453. An excerpt: (§1) Compounds from Example 1 were subjected to a standard MTT (3-(4,5-dimethylthiazol-2-yl)-2,5-diphenyltetrazolium bromide) and resazurin assays on solid tumour cell lines and leukemia cell lines, respectively, as previously reported (Wang S et al., J Med Chem 47:1662-1675, 2004 and Diab S. et al. CheMedChem 9:962-972, 2014).

In test [2] the target is T1, CDK4D1 (Homo sapiens, UniProt P11802).
T1 construct: purchased Eurofins Pharma Discovery or Reaction Biology Corporation (service)
In words: Kinase assay CDK4/D1 (radiometric or ADP Glo). In kind it is biochemical. The following applies: apparent Ki calculated from Km (ATP) and IC50; read-out: CDK inhibition Ki CDK4D1. The protocol: (§2) Eurofins Pharma Discovery or Reaction Biology Corporation Kinase Profiler services were used to measure inhibition of CDKs and other kinases by radiometric assay. Inhibition of CDK4/D1, CDK6/D3 and CDK9/T1 were also determined in-house using ADP Glo Kinase assays (Promega Corporation, Madison, USA). Briefly, the kinase reaction for CDK4/D1 and CDK6/D3 was performed with kinase reaction buffer ([…] Tris base pH 7.5, 20 mM MgCl2, 0.4 mM DTT), 0.1 mg/ml BSA and RB-CTF substrate (retinoblastoma protein1 C-terminal fraction). For CDK9/CyclinT1, the kinase reaction was performed with standard assay buffer and Kinase Dilution Buffer and RBER-IRStide substrate. Serial dilutions of 1:3 were prepared for test compounds for 10 concentrations (from 10 μM to 0.5 nM). The kinase reactions were started by addition of ATP, incubated for 40 min at 37° C. and then stopped by adding 10 μL of ADP Glo reagent. After incubation at room temperature in the dark for 40 min, 20 μL of kinase detection reagent was added per well and incubated for 40 min. Luminescence was measured using an EnVision Multilabel plate reader (PerkinElmer, Buckinghamshire, UK). Positive and negative controls were perfonned in the presence and absence of CDK kinases, respectively. Half-maximal inhibition (IC50) values were calculated using a 4-parameter logistic non-linear regression model with Graphpad prism (Version 6.0). Apparent inhibition constants (Ki) values were calculated from Km (ATP) and IC50 values for the respective kinases.

Test [3] deals with MV4-11. In words: Cell viability assay (resazurin, leukemia cell line) MV4-11. It is filed as cell-based, human. The following applies: Homo sapiens, MV4-11, 72 h; read-out: Anti-proliferative activity GI50 MV4-11.
From the text: as §1
(In general: Alamar Blue is a resazurin reagent that responds to reducing activity.)

Test [4] concerns the target T2, CDK9T1 (Homo sapiens, UniProt P50750).
T2 construct: purchased Eurofins Pharma Discovery or Reaction Biology Corporation (service)
In words: Kinase assay CDK9/T1 (radiometric or ADP Glo). In kind it is biochemical. Particulars: apparent Ki calculated from Km (ATP) and IC50; read-out: CDK inhibition Ki CDK9T1. How it is done: as §2

For test [5], the target named is CDK1B (Homo sapiens, UniProt P06493). In words: Kinase assay CDK1B (radiometric profiling service). Particulars: apparent Ki calculated from Km (ATP) and IC50; read-out: CDK inhibition Ki CDK1B. It is filed as biochemical. The protocol:
as §2

For test [6], the target named is CDK 2A (Homo sapiens, UniProt P24941). In words: Kinase assay CDK2A (radiometric profiling service). The following applies: apparent Ki calculated from Km (ATP) and IC50; read-out: CDK inhibition Ki CDK 2A. In kind it is biochemical. The protocol:
as §2

Test [7] has as its target T3, CDK6D3 (Homo sapiens, UniProt Q00534).
T3 construct: purchased Eurofins Pharma Discovery or Reaction Biology Corporation (service)
In words: Kinase assay CDK6/D3 (radiometric or ADP Glo). In kind it is biochemical. Particulars: apparent Ki calculated from Km (ATP) and IC50; read-out: CDK inhibition Ki CDK6D3. The protocol: as §2

Bounds are passed on as bounds.

T3 sequence (Q00534 whole entry): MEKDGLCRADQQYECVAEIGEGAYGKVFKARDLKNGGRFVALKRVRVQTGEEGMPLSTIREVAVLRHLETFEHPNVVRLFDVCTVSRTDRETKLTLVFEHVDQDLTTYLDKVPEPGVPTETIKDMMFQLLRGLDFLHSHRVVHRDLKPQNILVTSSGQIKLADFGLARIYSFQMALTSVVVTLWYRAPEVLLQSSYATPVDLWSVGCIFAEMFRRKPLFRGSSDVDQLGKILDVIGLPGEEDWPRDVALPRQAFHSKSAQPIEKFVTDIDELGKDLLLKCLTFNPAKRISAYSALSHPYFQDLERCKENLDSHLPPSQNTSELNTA
T3 sequence (P30281 whole entry partner): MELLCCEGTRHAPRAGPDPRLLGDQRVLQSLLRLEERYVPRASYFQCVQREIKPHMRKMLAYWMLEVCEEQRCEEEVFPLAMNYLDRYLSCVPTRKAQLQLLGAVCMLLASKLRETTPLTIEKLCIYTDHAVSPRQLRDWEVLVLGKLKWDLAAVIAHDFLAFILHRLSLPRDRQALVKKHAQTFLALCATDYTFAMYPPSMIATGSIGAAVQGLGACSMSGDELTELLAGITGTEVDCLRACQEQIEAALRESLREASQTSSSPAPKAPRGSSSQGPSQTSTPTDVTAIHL
T1 sequence (P11802 whole entry): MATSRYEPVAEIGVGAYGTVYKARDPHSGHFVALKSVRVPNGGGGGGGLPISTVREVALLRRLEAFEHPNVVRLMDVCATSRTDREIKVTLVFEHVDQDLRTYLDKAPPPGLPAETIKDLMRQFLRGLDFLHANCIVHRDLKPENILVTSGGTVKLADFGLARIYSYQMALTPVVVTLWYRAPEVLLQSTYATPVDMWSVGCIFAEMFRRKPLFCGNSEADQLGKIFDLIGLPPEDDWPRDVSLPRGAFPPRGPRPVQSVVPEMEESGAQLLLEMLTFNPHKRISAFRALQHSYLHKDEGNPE
T1 sequence (P24385 whole entry partner): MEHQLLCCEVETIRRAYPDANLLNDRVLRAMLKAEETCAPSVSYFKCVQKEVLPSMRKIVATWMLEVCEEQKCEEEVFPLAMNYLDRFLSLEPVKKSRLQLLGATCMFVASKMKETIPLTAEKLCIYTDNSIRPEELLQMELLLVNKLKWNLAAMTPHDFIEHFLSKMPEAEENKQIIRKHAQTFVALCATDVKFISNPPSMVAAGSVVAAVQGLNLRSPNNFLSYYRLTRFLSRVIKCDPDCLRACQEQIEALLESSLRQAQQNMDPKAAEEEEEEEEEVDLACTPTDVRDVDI
T2 sequence (P50750 whole entry): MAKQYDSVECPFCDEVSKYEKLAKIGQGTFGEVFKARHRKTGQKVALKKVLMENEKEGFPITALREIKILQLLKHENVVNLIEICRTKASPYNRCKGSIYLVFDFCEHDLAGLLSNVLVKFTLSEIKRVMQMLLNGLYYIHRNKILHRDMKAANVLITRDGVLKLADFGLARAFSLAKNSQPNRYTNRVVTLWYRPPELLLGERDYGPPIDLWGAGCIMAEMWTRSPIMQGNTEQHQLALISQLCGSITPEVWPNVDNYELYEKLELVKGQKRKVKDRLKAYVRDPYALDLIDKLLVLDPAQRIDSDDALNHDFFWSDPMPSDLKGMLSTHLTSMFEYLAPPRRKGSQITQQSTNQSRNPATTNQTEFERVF
T2 sequence (O60563 whole entry partner): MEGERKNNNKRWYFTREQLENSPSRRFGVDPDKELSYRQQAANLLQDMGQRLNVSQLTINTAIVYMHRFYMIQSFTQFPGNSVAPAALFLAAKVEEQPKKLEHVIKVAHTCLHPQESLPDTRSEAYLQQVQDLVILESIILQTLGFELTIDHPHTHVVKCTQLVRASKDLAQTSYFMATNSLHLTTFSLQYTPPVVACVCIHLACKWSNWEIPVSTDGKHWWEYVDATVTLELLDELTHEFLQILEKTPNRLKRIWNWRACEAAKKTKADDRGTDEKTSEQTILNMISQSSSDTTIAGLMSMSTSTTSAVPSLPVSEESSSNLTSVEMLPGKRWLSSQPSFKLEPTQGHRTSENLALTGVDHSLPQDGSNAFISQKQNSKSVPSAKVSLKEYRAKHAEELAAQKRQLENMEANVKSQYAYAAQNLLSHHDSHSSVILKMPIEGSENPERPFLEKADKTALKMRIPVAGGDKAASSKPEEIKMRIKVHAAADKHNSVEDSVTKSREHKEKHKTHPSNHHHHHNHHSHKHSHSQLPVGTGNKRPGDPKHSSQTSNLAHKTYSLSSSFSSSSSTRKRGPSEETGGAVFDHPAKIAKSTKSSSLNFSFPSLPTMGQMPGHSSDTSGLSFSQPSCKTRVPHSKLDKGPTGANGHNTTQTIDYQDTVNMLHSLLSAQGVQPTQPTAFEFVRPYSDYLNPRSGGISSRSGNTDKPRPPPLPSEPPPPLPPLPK
Sequence of CDK1B (P06493 whole entry): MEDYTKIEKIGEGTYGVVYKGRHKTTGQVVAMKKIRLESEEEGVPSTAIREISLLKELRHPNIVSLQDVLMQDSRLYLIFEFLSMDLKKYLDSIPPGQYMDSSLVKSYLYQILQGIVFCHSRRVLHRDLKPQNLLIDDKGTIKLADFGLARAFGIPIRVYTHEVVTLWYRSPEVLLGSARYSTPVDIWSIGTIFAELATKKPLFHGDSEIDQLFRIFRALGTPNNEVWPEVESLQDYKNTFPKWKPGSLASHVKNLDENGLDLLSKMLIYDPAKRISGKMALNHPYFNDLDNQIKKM
Sequence of CDK1B (P14635 whole entry partner): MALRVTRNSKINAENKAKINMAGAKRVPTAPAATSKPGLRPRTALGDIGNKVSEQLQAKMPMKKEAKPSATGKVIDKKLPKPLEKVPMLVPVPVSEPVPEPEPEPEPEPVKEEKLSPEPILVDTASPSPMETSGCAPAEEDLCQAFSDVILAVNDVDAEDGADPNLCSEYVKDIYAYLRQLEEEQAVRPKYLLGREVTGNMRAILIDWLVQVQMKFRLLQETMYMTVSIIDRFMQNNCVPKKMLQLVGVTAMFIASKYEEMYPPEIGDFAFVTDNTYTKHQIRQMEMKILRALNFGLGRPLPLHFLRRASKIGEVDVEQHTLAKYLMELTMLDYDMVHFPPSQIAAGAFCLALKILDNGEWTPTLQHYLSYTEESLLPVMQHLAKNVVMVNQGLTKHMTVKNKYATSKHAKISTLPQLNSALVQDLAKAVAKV

Turning to `CNc1nc(C)c(-c2nc(Nc3ccc(N4CCCCC4)cn3)ncc2F)s1` [Compound 51, 5-(5-fluoro-2-((5-(piperidin-1-yl)pyridin-2-yl)amino)pyrimidin-4-yl)-N,4-dimethylthiazol-2-amine], the GI50 (as a rule, the concentration at which growth is held to half of that of the control) in test [1] is 0.463 ± 0.075 µM; in test [3], 0.606 ± 0.038 µM. The Ki in test [2] is over 5 µM.
With `CNc1nc(C)c(-c2nc(Nc3ccccn3)ncc2F)s1` [Compound 54, 5-(5-fluoro-2-(pyridin-2-ylamino)pyrimidin-4-yl)-N,4-dimethylthiazol-2-amine], the GI50 came out at 2.94 ± 0.507 µM in test [1] and 2.16 ± 0.431 µM in test [3]. Also, the Ki in test [2] is over 5 µM.
As to `Cc1nc(NC(C)C)sc1-c1ccnc(Nc2ccc(N3CCNCC3)cn2)n1` [Compound 55, N-isopropyl-4-methyl-5-(2-((5-(piperazin-1-yl)pyridin-2-yl)amino)pyrimidin-4-yl)thiazol-2-amine], the GI50 in test [1] amounted to 0.031 ± 0.002 µM; in test [3] it was 0.093 ± 0.01 µM. The Ki was 2.42 µM in test [4]; 3.14 µM in test [5]; 0.005 µM in test [2]; 0.24 µM in test [6]; 0.011 µM in test [7].
Turning to `Cc1nc(NC(C)C)sc1-c1ccnc(Nc2ccc(N3CCN(C)CC3)cn2)n1` [Compound 56, N-isopropyl-4-methyl-5-(2-((5-(4-methylpiperazin-1-yl)pyridin-2-yl)amino)pyrimidin-4-yl)thiazol-2-amine], the concentration for 50% growth inhibition (GI50) in test [1] was found to be 0.618 ± 0.193 µM; in test [3], 0.075 ± 0.005 µM. Further, the Ki is 0.773 µM in test [4]; 3.81 µM in test [5]; 0.003 µM in test [2]; 0.399 µM in test [6]; 0.015 µM in test [7].
With `CC(=O)N1CCN(c2ccc(Nc3nccc(-c4sc(NC(C)C)nc4C)n3)nc2)CC1` [Compound 57, 1-(4-(6-((4-(2-(isopropylamino)-4-methylthiazol-5-yl)pyrimidin-2-yl)amino)pyridin-3-yl)piperazin-1-yl)ethan-1-one], the GI50 in test [1] is 0.344 ± 0.126 µM; in test [3] it was 2.07 ± 0.321 µM. The Ki in test [4] is 3.72 µM; in test [5], 2.69 µM; in test [2], 0.021 µM; in test [6], 0.2 µM; in test [7] it was 0.105 µM.
Take `Cc1nc(NC(C)C)sc1-c1ccnc(Nc2ccc(N3CCCNCC3)cn2)n1` [Compound 59, 5-(2-((5-(1,4-diazepan-1-yl)pyridin-2-yl)amino)pyrimidin-4-yl)-N-isopropyl-4-methylthiazol-2-amine]: the 50% growth inhibitory concentration (GI50) in test [1] worked out at 0.938 ± 0.068 µM; in test [3], 0.255 ± 0.085 µM. In addition, the Ki was 0.925 µM in test [4]; over 5 µM in test [5]; 0.016 µM in test [2]; 0.8 µM in test [6]; 0.028 µM in test [7].
For `Cc1nc(NC2CCCC2)sc1-c1nc(Nc2ccc(N3CCNCC3)cn2)ncc1F` [Compound 61, N-cyclopentyl-5-(5-fluoro-2-((5-(piperazin-1-yl)pyridin-2-yl)amino)pyrimidin-4-yl)-4-methylthiazol-2-amine], the GI50 in test [1] stood at 0.78 ± 0.598 µM; in test [3], 0.053 ± 0.004 µM. The Ki in test [4] is 0.787 µM; in test [5] it was 2.24 µM; in test [2], 0.003 µM; in test [6], 0.256 µM; in test [7], 0.007 µM.
`FC(F)(F)c1nc(NC2CCCC2)sc1-c1ccnc(Nc2ccc(N3CCNCC3)cn2)n1` [Compound 62, N-cyclopentyl-5-(2-((5-(piperazin-1-yl)pyridin-2-yl)amino)pyrimidin-4-yl)-4-(trifluoromethyl)thiazol-2-amine]: the figures for the concentration for 50% growth inhibition (GI50) in test [1] and in test [3] were 0.081 ± 0.039 µM and 0.002 ± 0.001 µM, respectively. The Ki in test [4] was 0.258 µM; in test [5], 0.22 µM; in test [2], 0.008 µM; in test [6] it was 0.022 µM; in test [7] it was 0.002 µM.
As for `Cc1nc(NC2CCCC2)sc1-c1ccnc(Nc2ccc(N3CCN(C)CC3)cn2)n1` [Compound 63, N-cyclopentyl-4-methyl-5-(2-((5-(4-methylpiperazin-1-yl)pyridin-2-yl)amino)pyrimidin-4-yl)thiazol-2-amine], the 50% growth inhibitory concentration (GI50) in test [1] turned out to be 0.13 ± 0.011 µM; in test [3], 0.009 µM. The Ki in test [4] is 0.18 µM; in test [5], 2.68 µM; in test [2], 0.002 µM; in test [6] it was 0.206 µM; in test [7], 0.009 µM.
As to `CN1CCN(c2ccc(Nc3nccc(-c4sc(NC5CCCC5)nc4C(F)(F)F)n3)nc2)CC1` [Compound 65, N-cyclopentyl-5-(2-((5-(4-methylpiperazin-1-yl)pyridin-2-yl)amino)pyrimidin-4-yl)-4-(trifluoromethyl)thiazol-2-amine], the GI50 stood at 0.42 ± 0.12 µM in test [1] and 0.001 ± 0.001 µM in test [3]. Moreover, the Ki was 0.831 µM in test [4]; 0.241 µM in test [5]; 0.001 µM in test [2]; 0.022 µM in test [6]; 0.003 µM in test [7].
On to `CCN1CCN(c2ccc(Nc3ncc(F)c(-c4sc(NC5CCCC5)nc4C)n3)nc2)CC1` [Compound 67, N-cyclopentyl-5-(2-((5-(4-ethylpiperazin-1-yl)pyridin-2-yl)amino)-5-fluoropyrimidin-4-yl)-4-methylthiazol-2-amine], for which the concentration for 50% growth inhibition (GI50) in test [1] is 0.066 ± 0.019 µM; in test [3], 0.013 ± 0.002 µM. The Ki in test [4] is over 5 µM; in test [5], over 5 µM; in test [2], 0.002 µM; in test [6] it was 0.349 µM; in test [7], 0.006 µM.
`CC(=O)N1CCN(c2ccc(Nc3nccc(-c4sc(NC5CCCC5)nc4C)n3)nc2)CC1` [Compound 68, 1-(4-(6-((4-(2-(Cyclopentylamino)-4-methylthiazol-5-yl)pyrimidin-2-yl)amino)pyridin-3-yl)piperazin-1-yl) ethan-1-one]: the 50% growth inhibitory concentration (GI50) in test [1] turned out to be 0.591 ± 0.256 µM; in test [3], 0.024 ± 0.028 µM. The Ki in test [4] is 0.286 µM; in test [5] it was 3.25 µM; in test [2], 0.006 µM; in test [6], 0.776 µM; in test [7], 0.093 µM.
Consider `CC(=O)N1CCN(c2ccc(Nc3nccc(-c4sc(NC5CCCC5)nc4C(F)(F)F)n3)nc2)CC1` [Compound 70, 1-(4-(6-((4-(2-(cyclopentylamino)-4-(trifluoromethyl)thiazol-5-yl)pyrimidin-2-yl)amino)pyridin-3-yl)piperazin-1-yl)ethan-1-one], for which the 50% growth inhibitory concentration (GI50) worked out at 0.077 ± 0.001 µM in test [1] and 0.012 ± 0.001 µM in test [3]. Besides, the Ki in test [4] was over 5 µM; in test [5], 0.297 µM; in test [2], 0.004 µM; in test [6] it was 0.014 µM; in test [7], 0.006 µM.
As to `Cc1nc(NC2CCCC2)sc1-c1ccnc(Nc2ccc(N3CCC(N)CC3)cn2)n1` [Compound 74, 5-(2-((5-(4-aminopiperidin-1-yl)pyridin-2-yl)amino)pyrimidin-4-yl)-N-cyclopentyl-4-methylthiazol-2-amine], the GI50 is 0.055 ± 0.012 µM in test [1] and 0.022 ± 0.002 µM in test [3]. Further, the Ki was 0.173 µM in test [4]; 1.23 µM in test [5]; 0.003 µM in test [2]; 0.181 µM in test [6]; 0.133 µM in test [7].
Regarding `Cc1nc(NC2CCCC2)sc1-c1ccnc(Nc2ccc(N3CCN(S(C)(=O)=O)CC3)cn2)n1` [Compound 77], the concentration for 50% growth inhibition (GI50) in test [1] worked out at 0.215 ± 0.052 µM; in test [3] it was 0.176 ± 0.009 µM.
`Cc1nc(NC2CCCC2)sc1-c1ccnc(Nc2ccccn2)n1` [Compound 78, N-cyclopentyl-4-methyl-5-(2-(pyridin-2-ylamino)pyrimidin-4-yl)thiazol-2-amine]: the 50% growth inhibitory concentration (GI50) was 4.38 ± 0.691 µM in test [1] and 0.3 ± 0.035 µM in test [3]. Also, the Ki in test [4] is over 5 µM; in test [2], 0.57 µM.
In the case of `CCN1CCN(Cc2ccc(Nc3nccc(-c4sc(NC5CCCC5)nc4C)n3)nc2)CC1` [Compound 83, N-cyclopentyl-5-(2-((5-((4-ethylpiperazin-1-yl)methyl)pyridin-2-yl)amino)pyrimidin-4-yl)-4-methylthiazol-2-amine], the GI50 in test [1] is 0.004 ± 0.002 µM; in test [3] it was 0.019 ± 0.003 µM. For the same compound, the Ki in test [4] was 1.98 µM; in test [5] it was over 5 µM.

The record behind these values is USRE49850E1, “N-(pyridin-2-yl)-4-(thiazol-5-yl)pyrimidin-2-amine derivatives as therapeutic compounds” (AUCENTRA THERAPEUTICS PTY LTD, priority 2015, dated 2024).
